Values quoted from earlier work in patent US11135214B2, “Methods for enhancing the bio availability and exposure of a voltage-gated potassium channel opener” (priority 2018, dated 2021).

Columns and labels:
TEP components = details: TMS-EEG, Premoli et al. 2016; cited from earlier work
[1] = Prescott and Evans 2014; cited from earlier work
[2] = tested on: neural membrane excitability; details: Ziemann et al. 2015; Ossemann et al. 2016; cited from earlier work
[3] = FDA Approved Labeling Text for Potiga; Harris and Murphy 2011; cited from earlier work

Compound | P180 component (TEP components) | amplitude of the N45 (TEP components) | black-box warnings after long term use [1] | motor threshold (at rest and under active muscular contraction) [2] | food effect on bioavailability and exposure after oral administration [3]
CC[C@@H](C(N)=O)N1CCCC1=O [levetiracetam] | suppressed | increased | – | – | –
CCOC(=O)Nc1ccc(NCc2ccc(F)cc2)cc1N [retigabine] | – | – | discoloration of skin, lips, nails and retinal pigmentary changes | increased | lack of food effect
NC(=O)N1c2ccccc2C=Cc2ccccc21 [carbamazepine] | – | – | – | increased | –
Nc1nnc(-c2cccc(Cl)c2Cl)c(N)n1 [lamotrigine] | suppressed | increased | – | increased | –
